Earlier results in patent US9662414B2, “Dressing system” (Edixomed Limited, priority 2013, dated 2017).

Details: healthy 70 kg-adult

SMILES | generally accepted safe dosage for topical anaesthesia [mg]
COC(=O)[C@H]1[C@@H](OC(=O)c2ccccc2)C[C@@H]2CC[C@H]1N2C [cocaine] | 200
CCN(CC)CC(=O)Nc1c(C)cccc1C [lidocaine] | 750
CCCCNc1ccc(C(=O)OCCN(C)C)cc1 [tetracaine] | 50
